Test results taken from ChEMBL document CHEMBL3885861, “Open TG-GATES”.

Species on record: Rattus norvegicus
Test: Open TG-GATES - Regimen: Single
Format: toxicity, organism-based, Sprague-Dawley
Design: regimen Single, gender Male, age 6 weeks
Settings: in vivo, sc, route subcutaneous injection; for APTT / Bas / Eos / Fbg / Hb / Ht / Lym / MCH / MCHC / MCV / Mono / Neu / PT / Plat / RBC / Ret / WBC: tissue Blood; for KIDNEY_L / KIDNEY_R / KIDNEY_TOTAL: tissue Kidney; for LIVER: tissue Liver; for A/G / ALP / ALT / AST / BUN / CRE / Ca / Cl / DBIL / GLC / IP / K / LDH / Na / PL / RALB / TBIL / TC / TG / TP / gamma-GTP: tissue Plasma
[1] = 0.2 mg/kg, 3 h, dose 200 ug/Kg, dose level Middle
[2] = 0.2 mg/kg, 6 h, dose 200 ug/Kg, dose level Middle
[3] = 0.2 mg/kg, 9 h, dose 200 ug/Kg, dose level Middle
[4] = 0.2 mg/kg, 24 h, dose 200 ug/Kg, dose level Middle
[5] = 2 mg/kg, 3 h, dose 2000 ug/Kg, dose level High
[6] = 2 mg/kg, 6 h, dose 2000 ug/Kg, dose level High
[7] = 2 mg/kg, 9 h, dose 2000 ug/Kg, dose level High
[8] = 2 mg/kg, 24 h, dose 2000 ug/Kg, dose level High

## CC(=O)O.N=C(N)NCCC[C@@H](NC(=O)[C@@H]1CCCN1C(=O)[C@@H]1CSSCCC(=O)N[C@@H](Cc2ccc(O)cc2)C(=O)N[C@@H](Cc2ccccc2)C(=O)N[C@@H](CCC(N)=O)C(=O)N[C@@H](CC(N)=O)C(=O)N1)C(=O)NCC(N)=O [DESMOPRESSIN ACETATE]
[1]
  TERMINAL_BW: 206.2 g
  APTT: 17.6 s
  Bas: 0%
  Eos: 1%
  Fbg: 256.3 mg/dL
  Hb: 12.8 g/dL
  Ht: 39.6%
  Lym: 71.8%
  MCH: 21.1 pg
  MCHC: 32.3%
  MCV: 65.1 fL
  Mono: 7.6%
  Neu: 19.6%
  PT: 12.2 s
  Plat: 112.4 x10_4/uL
  RBC: 609.4 x10_4/ul
  Ret: 8.8%
  WBC: 77 x10_2/uL
  KIDNEY_L: 0.9 g
  KIDNEY_R: 1 g
  KIDNEY_TOTAL: 1.9 g
  LIVER: 9.9 g
  A/G: 2
  ALP: 1405.8 IU/L
  ALT: 44.4 IU/L
  AST: 81.2 IU/L
  BUN: 23.8 mg/dL
  CRE: 0.4 mg/dL
  Ca: 11.8 mg/dL
  Cl: 101 meq/L
  DBIL: 0.012 mg/dL
  GLC: 205.6 mg/dL
  IP: 10.8 mg/dL
  K: 4.6 meq/L
  LDH: 272.6 IU/L
  Na: 134.6 meq/L
  PL: 145.8 mg/dL
  RALB: 3.8 g/dL
  TBIL: 0.05 mg/dL
  TC: 77 mg/dL
  TG: 99.8 mg/dL
  TP: 5.7 g/dL
  gamma-GTP: 0.8 IU/L
[2]
  TERMINAL_BW: 205.6 g
  APTT: 18.4 s
  Bas: 0%
  Eos: 1.6%
  Fbg: 244.6 mg/dL
  Hb: 13 g/dL
  Ht: 39.7%
  Lym: 71.8%
  MCH: 21.4 pg
  MCHC: 32.8%
  MCV: 65.3 fL
  Mono: 8.8%
  Neu: 18%
  PT: 12.5 s
  Plat: 124.8 x10_4/uL
  RBC: 609.4 x10_4/ul
  Ret: 8.7%
  WBC: 102.8 x10_2/uL
  KIDNEY_L: 1 g
  KIDNEY_R: 1 g
  KIDNEY_TOTAL: 2 g
  LIVER: 9.6 g
  A/G: 2.1
  ALP: 1316 IU/L
  ALT: 34.8 IU/L
  AST: 63.2 IU/L
  BUN: 27.4 mg/dL
  CRE: 0.3 mg/dL
  Ca: 10.9 mg/dL
  Cl: 101 meq/L
  DBIL: 0.016 mg/dL
  GLC: 200.6 mg/dL
  IP: 10.3 mg/dL
  K: 4.6 meq/L
  LDH: 127.6 IU/L
  Na: 135.4 meq/L
  PL: 155.6 mg/dL
  RALB: 3.7 g/dL
  TBIL: 0.064 mg/dL
  TC: 84.2 mg/dL
  TG: 76.2 mg/dL
  TP: 5.5 g/dL
  gamma-GTP: 1 IU/L
[3]
  TERMINAL_BW: 199.6 g
  APTT: 17.9 s
  Bas: 0%
  Eos: 1.2%
  Fbg: 239.4 mg/dL
  Hb: 13.3 g/dL
  Ht: 41%
  Lym: 74.4%
  MCH: 21.4 pg
  MCHC: 32.4%
  MCV: 66.2 fL
  Mono: 7.4%
  Neu: 17%
  PT: 12.5 s
  Plat: 112.4 x10_4/uL
  RBC: 620 x10_4/ul
  Ret: 9.2%
  WBC: 93.8 x10_2/uL
  KIDNEY_L: 1 g
  KIDNEY_R: 1 g
  KIDNEY_TOTAL: 2.1 g
  LIVER: 8.4 g
  A/G: 2
  ALP: 1325.8 IU/L
  ALT: 31 IU/L
  AST: 60.4 IU/L
  BUN: 28.4 mg/dL
  CRE: 0.3 mg/dL
  Ca: 11.2 mg/dL
  Cl: 102.6 meq/L
  DBIL: 0.016 mg/dL
  GLC: 195.6 mg/dL
  IP: 10.6 mg/dL
  K: 5.4 meq/L
  LDH: 104.4 IU/L
  Na: 135.4 meq/L
  PL: 144 mg/dL
  RALB: 3.7 g/dL
  TBIL: 0.068 mg/dL
  TC: 84 mg/dL
  TG: 50.2 mg/dL
  TP: 5.5 g/dL
  gamma-GTP: 0.8 IU/L
[4]
  TERMINAL_BW: 218.4 g
  APTT: 16.7 s
  Bas: 0%
  Eos: 1%
  Fbg: 245.4 mg/dL
  Hb: 12.6 g/dL
  Ht: 38.9%
  Lym: 77.4%
  MCH: 21.1 pg
  MCHC: 32.4%
  MCV: 65.3 fL
  Mono: 6.4%
  Neu: 15%
  PT: 12.3 s
  Plat: 123 x10_4/uL
  RBC: 596.6 x10_4/ul
  Ret: 10.6%
  WBC: 103.4 x10_2/uL
  KIDNEY_L: 1 g
  KIDNEY_R: 1 g
  KIDNEY_TOTAL: 2 g
  LIVER: 10.2 g
  A/G: 2
  ALP: 1597.6 IU/L
  ALT: 40.2 IU/L
  AST: 69.8 IU/L
  BUN: 19.8 mg/dL
  CRE: 0.4 mg/dL
  Ca: 11.1 mg/dL
  Cl: 103.6 meq/L
  DBIL: 0 mg/dL
  GLC: 197.4 mg/dL
  IP: 8.5 mg/dL
  K: 5.3 meq/L
  LDH: 156.4 IU/L
  Na: 137.2 meq/L
  PL: 157 mg/dL
  RALB: 3.6 g/dL
  TBIL: 0.022 mg/dL
  TC: 90.6 mg/dL
  TG: 93 mg/dL
  TP: 5.5 g/dL
  gamma-GTP: 1.8 IU/L
[5]
  TERMINAL_BW: 202.2 g
  APTT: 18 s
  Bas: 0%
  Eos: 1.6%
  Fbg: 237.8 mg/dL
  Hb: 12.9 g/dL
  Ht: 39.6%
  Lym: 64.8%
  MCH: 21.3 pg
  MCHC: 32.6%
  MCV: 65.5 fL
  Mono: 10.6%
  Neu: 22.8%
  PT: 12.3 s
  Plat: 117.4 x10_4/uL
  RBC: 606.2 x10_4/ul
  Ret: 9.2%
  WBC: 85.4 x10_2/uL
  KIDNEY_L: 0.9 g
  KIDNEY_R: 1 g
  KIDNEY_TOTAL: 1.9 g
  LIVER: 9.5 g
  A/G: 2
  ALP: 1436 IU/L
  ALT: 38.6 IU/L
  AST: 70.8 IU/L
  BUN: 22.6 mg/dL
  CRE: 0.4 mg/dL
  Ca: 11.7 mg/dL
  Cl: 97 meq/L
  DBIL: 0.01 mg/dL
  GLC: 217 mg/dL
  IP: 9.5 mg/dL
  K: 4.6 meq/L
  LDH: 134.8 IU/L
  Na: 130.6 meq/L
  PL: 157.4 mg/dL
  RALB: 4 g/dL
  TBIL: 0.048 mg/dL
  TC: 82.4 mg/dL
  TG: 89 mg/dL
  TP: 5.9 g/dL
  gamma-GTP: 0.8 IU/L
[6]
  TERMINAL_BW: 204.1 g
  APTT: 18.4 s
  Bas: 0%
  Eos: 1.2%
  Fbg: 247.9 mg/dL
  Hb: 13.2 g/dL
  Ht: 40%
  Lym: 65.8%
  MCH: 21.8 pg
  MCHC: 33%
  MCV: 66 fL
  Mono: 11.8%
  Neu: 21%
  PT: 12.1 s
  Plat: 120.4 x10_4/uL
  RBC: 606.4 x10_4/ul
  Ret: 10.1%
  WBC: 106 x10_2/uL
  KIDNEY_L: 1 g
  KIDNEY_R: 1 g
  KIDNEY_TOTAL: 2 g
  LIVER: 9.3 g
  A/G: 1.9
  ALP: 1390.6 IU/L
  ALT: 36 IU/L
  AST: 64 IU/L
  BUN: 31.6 mg/dL
  CRE: 0.4 mg/dL
  Ca: 11.1 mg/dL
  Cl: 96.2 meq/L
  DBIL: 0.016 mg/dL
  GLC: 211.2 mg/dL
  IP: 10.6 mg/dL
  K: 4.5 meq/L
  LDH: 122.2 IU/L
  Na: 131 meq/L
  PL: 157.4 mg/dL
  RALB: 3.9 g/dL
  TBIL: 0.084 mg/dL
  TC: 92.4 mg/dL
  TG: 49.4 mg/dL
  TP: 5.9 g/dL
  gamma-GTP: 1 IU/L
[7]
  TERMINAL_BW: 202.3 g
  APTT: 17.8 s
  Bas: 0%
  Eos: 1%
  Fbg: 249 mg/dL
  Hb: 12.8 g/dL
  Ht: 39.2%
  Lym: 74.4%
  MCH: 20.9 pg
  MCHC: 32.7%
  MCV: 63.9 fL
  Mono: 7.4%
  Neu: 17%
  PT: 12.5 s
  Plat: 124.6 x10_4/uL
  RBC: 613.2 x10_4/ul
  Ret: 8.9%
  WBC: 98.6 x10_2/uL
  KIDNEY_L: 1 g
  KIDNEY_R: 1 g
  KIDNEY_TOTAL: 2 g
  LIVER: 8.6 g
  A/G: 2.2
  ALP: 1194.8 IU/L
  ALT: 29.6 IU/L
  AST: 64.2 IU/L
  BUN: 31.8 mg/dL
  CRE: 0.3 mg/dL
  Ca: 11.1 mg/dL
  Cl: 98.6 meq/L
  DBIL: 0.018 mg/dL
  GLC: 197.4 mg/dL
  IP: 10.7 mg/dL
  K: 4.9 meq/L
  LDH: 129.4 IU/L
  Na: 132.8 meq/L
  PL: 137.6 mg/dL
  RALB: 3.8 g/dL
  TBIL: 0.08 mg/dL
  TC: 77.8 mg/dL
  TG: 40.6 mg/dL
  TP: 5.6 g/dL
  gamma-GTP: 0.4 IU/L
[8]
  TERMINAL_BW: 220.4 g
  APTT: 16.2 s
  Bas: 0%
  Eos: 1%
  Fbg: 236.7 mg/dL
  Hb: 12.6 g/dL
  Ht: 38.7%
  Lym: 66.8%
  MCH: 21.1 pg
  MCHC: 32.7%
  MCV: 64.6 fL
  Mono: 10.6%
  Neu: 21.2%
  PT: 12.4 s
  Plat: 121 x10_4/uL
  RBC: 599 x10_4/ul
  Ret: 9.6%
  WBC: 88.8 x10_2/uL
  KIDNEY_L: 1 g
  KIDNEY_R: 1 g
  KIDNEY_TOTAL: 2.1 g
  LIVER: 10.4 g
  A/G: 1.9
  ALP: 1283.2 IU/L
  ALT: 33.4 IU/L
  AST: 60 IU/L
  BUN: 20 mg/dL
  CRE: 0.3 mg/dL
  Ca: 11.1 mg/dL
  Cl: 103.6 meq/L
  DBIL: 0 mg/dL
  GLC: 195.2 mg/dL
  IP: 8.4 mg/dL
  K: 5.4 meq/L
  LDH: 128.4 IU/L
  Na: 136.4 meq/L
  PL: 150 mg/dL
  RALB: 3.5 g/dL
  TBIL: 0.014 mg/dL
  TC: 81.4 mg/dL
  TG: 110 mg/dL
  TP: 5.3 g/dL
  gamma-GTP: 1.4 IU/L
